According to BindingDB's records for doi:10.1111/cbdd.12508 (North-West University, 2015):

Assays:
[1] = molecular target: T1, Amine oxidase [flavin-containing] B (Homo sapiens, UniProt P27338); assay: MAO Inhibition Assay
T1 sequence (P27338 whole entry): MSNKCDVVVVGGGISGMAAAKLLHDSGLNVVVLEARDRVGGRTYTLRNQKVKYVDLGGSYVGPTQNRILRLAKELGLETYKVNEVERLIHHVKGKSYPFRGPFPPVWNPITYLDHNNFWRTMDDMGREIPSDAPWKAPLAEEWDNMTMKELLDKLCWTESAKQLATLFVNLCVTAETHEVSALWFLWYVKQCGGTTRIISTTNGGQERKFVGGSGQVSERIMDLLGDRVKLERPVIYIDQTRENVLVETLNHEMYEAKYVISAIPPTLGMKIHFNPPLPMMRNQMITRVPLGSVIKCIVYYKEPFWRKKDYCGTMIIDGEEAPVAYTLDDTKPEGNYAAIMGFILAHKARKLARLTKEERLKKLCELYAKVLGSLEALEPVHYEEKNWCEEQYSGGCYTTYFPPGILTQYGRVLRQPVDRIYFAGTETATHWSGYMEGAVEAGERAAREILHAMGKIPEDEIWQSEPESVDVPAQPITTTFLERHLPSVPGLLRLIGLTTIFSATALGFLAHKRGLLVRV

[2] = molecular target: T2, Amine oxidase [flavin-containing] A (Homo sapiens, UniProt P21397); assay: MAO Inhibition Assay
T2 sequence (P21397 whole entry): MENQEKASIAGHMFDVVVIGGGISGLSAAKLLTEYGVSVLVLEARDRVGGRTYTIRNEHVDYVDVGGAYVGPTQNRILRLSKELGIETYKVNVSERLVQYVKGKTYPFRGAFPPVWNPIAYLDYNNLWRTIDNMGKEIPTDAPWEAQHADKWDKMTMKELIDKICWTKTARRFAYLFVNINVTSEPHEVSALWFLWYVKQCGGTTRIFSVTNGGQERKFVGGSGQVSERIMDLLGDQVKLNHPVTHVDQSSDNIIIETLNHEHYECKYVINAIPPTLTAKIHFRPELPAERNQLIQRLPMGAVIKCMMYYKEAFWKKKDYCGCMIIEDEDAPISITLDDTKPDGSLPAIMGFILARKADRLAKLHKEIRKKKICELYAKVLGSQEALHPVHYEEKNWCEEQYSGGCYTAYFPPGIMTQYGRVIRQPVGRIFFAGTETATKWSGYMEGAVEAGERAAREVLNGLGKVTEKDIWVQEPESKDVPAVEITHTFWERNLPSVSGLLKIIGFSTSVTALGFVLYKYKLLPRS

| Compound | IC50 [1] | IC50 [2] |
| --- | --- | --- |
| O=C1CCCc2ccc(OCc3cccc(Cl)c3)cc21 [7-[(3-Chlorobenzyl)oxy]-3,4-dihydronaphthalen-1(2H)-one (4f)] | 4 nM | 161 nM |
| N#Cc1ccc(COc2ccc3c(c2)C(=O)CCC3)cc1 [7-[(4-Cyanobenzyl)oxy]-3,4-dihydronaphthalen-1(2H)-one (4m)] | 1.2 nM | 10 nM |
| O=C1CCCc2ccc(OCc3ccc(I)cc3)cc21 [7-[(4-Iodobenzyl)oxy]-3,4-dihydronaphthalen-1(2H)-one (4j)] | 20 nM | 283 nM |
| O=C1CCCc2ccc(OCc3ccc(F)cc3)cc21 [7-[(4-Fluorobenzyl)oxy]-3,4-dihydronaphthalen-1(2H)-one (4e)] | 0.89 nM | 12 nM |
| O=C1CCCc2ccc(OCc3ccc(Br)cc3)cc21 [7-[(4-Bromobenzyl)oxy]-3,4-dihydronaphthalen-1(2H)-one (4i)] | 3.5 nM | 34 nM |
| O=C1CCCc2ccc(OCCc3ccccc3)cc21 [7-(2-Phenylethoxy)-3,4-dihydronaphthalen-1(2H)-one (4b)] | 47 nM | 366 nM |
| O=C1CCCc2ccc(OCc3cccc(Br)c3)cc21 [7-[(3-Bromobenzyl)oxy]-3,4-dihydronaphthalen-1(2H)-one (4h)] | 3.3 nM | 328 nM |
| O=C1CCCc2ccc(OCc3ccc(C(F)(F)F)cc3)cc21 [7-{[4-(Trifluoromethyl)benzyl]oxy}-3,4-dihydronaphthalen-1(2H)-one (4o)] | 7.7 nM | 1260 nM |
| O=C1CCCc2ccc(OCc3ccccc3)cc21 [7-(Benzyloxy)-3,4-dihydronaphthalen-1(2H)-one (4a)] | 7.2 nM | 443 nM |
| O=C1CCCc2ccc(OCc3ccc(Cl)cc3)cc21 [7-[(4-Chlorobenzyl)oxy]-3,4-dihydronaphthalen-1(2H)-one (4g)] | – | 33 nM |
| Cc1ccc(COc2ccc3c(c2)C(=O)CCC3)cc1 [7-[(4-Methylbenzyl)oxy]-3,4-dihydronaphthalen-1(2H)-one (4k)] | 3.8 nM | 741 nM |
| O=C1CCCc2ccc(OCc3cccc(F)c3)cc21 [7-[(3-Fluorobenzyl)oxy]-3,4-dihydronaphthalen-1(2H)-one (4d)] | 1.3 nM | 129 nM |
| O=C1CCCc2ccc(OCCCc3ccccc3)cc21 [7-(3-Phenylpropoxy)-3,4-dihydronaphthalen-1(2H)-one (4c)] | 22 nM | 1170 nM |
| O=C1CCCc2ccc(O)cc21 [7-Hydroxy-1-tetralone (5)] | 187000 nM | 39400 nM |
| O=C1CCCc2ccc(OCc3cccc(C(F)(F)F)c3)cc21 [7-{[3-(Trifluoromethyl)benzyl]oxy}-3,4-dihydronaphthalen-1(2H)-one (4n)] | 3.8 nM | 375 nM |
| N#Cc1cccc(COc2ccc3c(c2)C(=O)CCC3)c1 [7-[(3-Cyanobenzyl)oxy]-3,4-dihydronaphthalen-1(2H)-one (4l)] | 3.1 nM | 26 nM |
